In ChEMBL document CHEMBL1201862, “PubChem BioAssay data set” (2004):
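Grown in 96-well plates, cells were treated for 48 hours with each compound at five concentrations. Insufficient inhibition: endpoint recorded as highest concentration tested. GI50: concentration for 50% inhibition of growth.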 The source made the active and inactive calls. No stated cut-off is given here; in the data, active = GI50 up to about 1.1 µM and inactive = higher.

Key:
Assay in all cases: NCI anticancer screen, dose series, 48 h
IGROV-1 = test system: IGROV-1
U-251 = test system: U-251
SN12C = test system: SN12C
OVCAR-4 = test system: OVCAR-4
SF-268 = test system: SF-268
OVCAR-8 = test system: OVCAR-8
ACHN = test system: ACHN
HCT-15 = test system: HCT-15
RPMI-8226 = test system: RPMI-8226
SW-620 = test system: SW-620
CCRF-CEM = test system: CCRF-CEM
NCI-H226 = test system: NCI-H226
KM12 = test system: KM12
DU-145 = test system: DU-145
RXF 393 = test system: RXF 393
HT-29 = test system: HT-29
Malme-3M = test system: Malme-3M
NCI/ADR-RES = test system: NCI/ADR-RES
Hs-578T = test system: Hs-578T

Row | Structure (SMILES) | GI50 (IGROV-1) | GI50 (U-251) | GI50 (SN12C) | GI50 (OVCAR-4) | GI50 (SF-268) | GI50 (OVCAR-8) | GI50 (ACHN) | GI50 (HCT-15) [µM] | GI50 (RPMI-8226) | GI50 (SW-620) | GI50 (CCRF-CEM) | GI50 (NCI-H226) | GI50 (KM12) | GI50 (DU-145) | GI50 (RXF 393) | GI50 (HT-29) | GI50 (Malme-3M) | GI50 (NCI/ADR-RES) | GI50 (Hs-578T)
1 | Cn1c(O)c(C(=O)NC2CCCCC2)c(=O)n(C)c1=S | 4.89 µM (inactive) | 4.51 µM (inactive) | 6.12 µM (inactive) | 6.75 µM (inactive) | 4.56 µM (inactive) | 4.33 µM (inactive) | 3.57 µM (inactive) | 5.02 | 4.32 µM (inactive) | 5.79 µM (inactive) | 5.83 µM (inactive) | 8.57 µM (inactive) | 9.66 µM (inactive) |  |  |  |  |  | 
2 | O=C(O)C/C(=C\c1ccco1)C(=O)O | > 100 µM (inactive) | > 100 µM (inactive) | > 100 µM (inactive) | > 100 µM (inactive) |  | > 100 µM (inactive) | > 100 µM (inactive) | > 100 | > 100 µM (inactive) | > 100 µM (inactive) |  | > 100 µM (inactive) | > 100 µM (inactive) | > 100 µM (inactive) | > 100 µM (inactive) | > 100 µM (inactive) | > 100 µM (inactive) | > 100 µM (inactive) | 
3 | Cc1nc(-c2cc3cc([N+](=O)[O-])ccc3oc2=O)cs1 | > 100 µM (inactive) | > 100 µM (inactive) | > 100 µM (inactive) | > 100 µM (inactive) | > 100 µM (inactive) |  | > 100 µM (inactive) | > 100 | > 100 µM (inactive) | > 100 µM (inactive) | 32.9 µM (inactive) | > 100 µM (inactive) | > 100 µM (inactive) | > 100 µM (inactive) | > 100 µM (inactive) | > 100 µM (inactive) |  |  | > 100 µM (inactive)
4 | CC(=O)O[C@@H]1[C@@H](O)C2=C3[C@]4(C)[C@@H]1C(C)(C)C(=O)C[C@@H]4[C@]3(O)[C@H](OC(C)=O)[C@@]1(C[C@@H]1C)C2=O | 15.4 µM (inactive) | 16 µM (inactive) | 18.4 µM (inactive) | 19.5 µM (inactive) | 25.1 µM (inactive) | 18.5 µM (inactive) | 18.9 µM (inactive) | 15.3 | 6.7 µM (inactive) | 18.3 µM (inactive) | 7.82 µM (inactive) |  | 16.6 µM (inactive) | 17.3 µM (inactive) |  |  | 13.5 µM (inactive) | 23.4 µM (inactive) | 41.2 µM (inactive)
5 | Cc1ccc(-c2c(C#N)c(-c3ccc([N+](=O)[O-])cc3)c(C#N)c(=O)n2NS(=O)(=O)c2ccc(C)cc2)cc1 | 24.7 µM (inactive) | 44.8 µM (inactive) | 50 µM (inactive) | 41.5 µM (inactive) | 79.3 µM (inactive) | 49.1 µM (inactive) | 51.9 µM (inactive) | 41.6 | 18.9 µM (inactive) | 51.6 µM (inactive) | 25.9 µM (inactive) | > 100 µM (inactive) | 30.2 µM (inactive) |  | 52.2 µM (inactive) | 56.4 µM (inactive) | 96.4 µM (inactive) | 38.1 µM (inactive) | 30.7 µM (inactive)
6 | CCCCCCNC(=O)c1cnc(Cl)cn1 | 10.5 µM (inactive) | 11.5 µM (inactive) | 13.3 µM (inactive) | 20.6 µM (inactive) | 14.3 µM (inactive) | 12.4 µM (inactive) | 2.36 µM (inactive) | 2.55 | 29 µM (inactive) | 15.1 µM (inactive) | 13.7 µM (inactive) | 10 µM (inactive) | 15.9 µM (inactive) | 16.1 µM (inactive) |  | 33.1 µM (inactive) | 16.7 µM (inactive) | 15.6 µM (inactive) | 14.2 µM (inactive)
7 | CCc1n[nH]c(=O)n1CCO | > 100 µM (inactive) | > 100 µM (inactive) | > 100 µM (inactive) | > 100 µM (inactive) |  | > 100 µM (inactive) | > 100 µM (inactive) | > 100 | > 100 µM (inactive) | > 100 µM (inactive) |  | > 100 µM (inactive) | > 100 µM (inactive) | > 100 µM (inactive) |  | > 100 µM (inactive) |  | > 100 µM (inactive) | 
8 | CC(=O)N1C(NN(C)C)CCN1c1ccccc1 (stereo unspecified) | > 10 µM (inactive) |  | > 10 µM (inactive) | > 10 µM (inactive) | > 10 µM (inactive) | > 10 µM (inactive) |  | > 10 | > 10 µM (inactive) | > 10 µM (inactive) | > 10 µM (inactive) |  | > 10 µM (inactive) | > 10 µM (inactive) | > 10 µM (inactive) | > 10 µM (inactive) | > 10 µM (inactive) |  | 
9 | O=C(O)Cn1cc([N+](=O)[O-])c(=O)c2ccccc21 | > 100 µM (inactive) | > 100 µM (inactive) | > 100 µM (inactive) |  | > 100 µM (inactive) | > 100 µM (inactive) | > 100 µM (inactive) | > 100 |  | > 100 µM (inactive) | > 100 µM (inactive) | > 100 µM (inactive) | > 100 µM (inactive) | 57 µM (inactive) |  | > 100 µM (inactive) | > 100 µM (inactive) | > 100 µM (inactive) | > 100 µM (inactive)
